What was measured:
Huh-7 cells = test: BBP-induced signaling in Huh-7 cells (RT-PCR, Western blot, immunofluorescence); assay type: cell-based, human
Description: Huh-7 cells (3×10^5) were seeded into a 6-well dish and incubated for 24 h. Cells cultured serum-free medium overnight were treated with BBP (1 μM) for various time intervals. After BBP stimulation, cells were washed twice with PBS. Total RNAs were extracted by TRIzol methods (Invitrogen). RNA (2 μg) was used to synthesize cDNA by Reverse Transcription System (Promega). The c-DNAs were amplified by the specific primers. The primer pairs were designed as follows: AhR, forward 5′-TACTCTGCCGCCCAAACTGG-3′ (SEQ ID NO:49), reverse 5′-GCTCTGCAACCTCCGATTCC-3′ (SEQ ID NO:50); β-actin, forward 5′-CTC GCT GTC CAC CTT CCA-3′ (SEQ ID NO:51), reverse 5′-GCT GTC ACC TTC ACC GTTC-3′ (SEQ ID NO:52). PCR conditions were set at 95° C. for 5 min and 95° C. for 30 sec, 54° C. for 30 sec, 72° C. for 1 min followed by 72° C. for 10 min (36 cycles). The products were separated by 2% agarose gels and visualized by ethidium bromide.
Huh-7 cells (1×10^6) were seeded into 10 cm dish and cultured overnight. The culture medium was changed to serum-free medium for another night. Cells were treated with BBP (1 μM) for various time intervals. […] Cells were then washed twice with ice-cold PBS and lysed by RIPA lysis buffer (Minipore). Protein concentration was measured by BCA protein assay kit (Thermo). Equal amounts of protein (30 μg protein) were resolved by 8% SDS-PAGE, transferred onto PVDF membrane, and blocked with 5% non-fat dry milk for 1 h at room temperature. After blocking, the membrane was incubated with the primary antibodies including AhR (1:1000), Cox-2 (1:1000), Gαq/11 (1:100), Gβ (1:100), β-actin (1:5000), p44/42 MAP kinase (1:1000) or phospho-p44/42 MAP kinase (1:1000) overnight at 4° C. Cells were washed three times with PBST and then incubated with HRP conjugated secondary antibodies for 1 h at room temperature. After washing, the blot was visualized using an enhanced chemiluminescence kit (ECL) (Amersham).
Cells with or without transfection by AhR siRNA were cultured and treated with BBP (1 μM) for 5 and 15 min each. After treatment with primary and secondary antibodies for AhR and Gαq/11, cells were subjected to confocal immunofluorescence microscopy to analyze the dynamic movement in the cell compartments.

[1] = system: intracellular calcium in Huh-7 cells; test: Real-time live cell calcium imaging in BBP-treated Huh-7 cells; assay type: cell-based, human
Description: Cells were pre-treated with Fluo-4 (1 μM), a Ca^2+-specific dye, in BSS buffer at 37° C. for 20 min before treatment with BBP (1 μM). Measurements of relative intracellular calcium intensity were performed by real-time cell imaging microscopy and analyzed by Cell-R software system (Olympus).

[2] = system: intracellular calcium in hTS cells; test: Real-time live cell calcium imaging in RA-treated hTS cells; assay type: cell-based, human
Description: FIGS. 21a-21n illustrate activation of Gαq/11 signaling pathway: (21a) illustrates expressions of Gαq/11 pathway-related components after RA treatment (10 μM) over time by Western blots; (21b) illustrates real-time live cell imaging microscopy (Cell-R system, Olympus, Tokyo) in hTS cells which were cultured in the calcium-free medium and pre-loaded with Fluo4 (1 μM) in BSS buffer 20 min before RA treatment. […] (c) After depletion of ER calcium, KCl (60 mM) enabled to activate L-type calcium channels.

IP3R = conditions: pretreatment with 2-APB
hTS cells [3] = test: RA-induced protein/mRNA expression over time in hTS cells (Western blots, RT-PCR, flow cytometry); assay type: cell-based, human
Description: For RT-PCR, total RNA from 10^5-10^6 cells was extracted by using TRIZOL reagent (Invitrogen) and mRNA expression by using a Ready-To-Go RT-PCR Beads kit (Amersham Biosciences, Buckinghamshire, UK). Briefly, the reaction products were resolved on 1.5% agarose gel and visualized with ethidium bromide. β-actin or β-2 microglobulin was used as a positive control. All experiments were performed in triplicate. For qPCR, gene expression was measured with the iQ5 Real-Time PCR Detection System (Bio-Rad Laboratories) and analyzed with Bio-Rad iQ5 Optical System Software, version 2.0 (Bio-Rad Laboratories). Relative mRNA levels were calculated using the comparative Ct method (Bio-Rad, instruction manual) and presented as a ratio to biological controls. All primer pairs were confirmed to approximately double the amount of product within one cycle and to yield a single product of the predicted size.
Cells were seeded into 10 cm dish with the serum-free medium for overnight and treated with or without RA (10 μM) for various time intervals as indicated. After stimulation, cells were washed twice with ice-cold PBS and lysed by RIPA lysis buffer (Minipore). Protein concentration was determined by BCA protein assay kit (Thermo). Equal amounts of protein (30 μg) were resolved by 8% SDS-PAGE, transferred onto PVDF membrane and blocked with 5% non-fat dry milk for 1 h at room temperature. After blocking, the membrane was incubated with primary antibodies for 4 h at 4° C. Cells were washed three times with PBST and then incubated with HRP conjugated secondary antibodies for 1 h at room temperature. After washing six times with PBST buffer, the membrane was incubated with a chemiluminescent substrate (GE Healthcare) for 1 min. Specific bands were visualized using an enhanced chemiluminescence kit (ECL) (Amersham).
hTS cells obtained from the preimplantation embryos in women with early tubal ectopic pregnancy were described previously. Adherent hTS cells were cultured in conditioned α-MEM containing 10 μg/ml bFGF (JRH, Biosciences, San Jose, CA), 10% FBS, and 1% penicillin-streptomycin at 37° C. in 5% CO2. Cells were treated by RA (10 μM) for various time intervals depending on the experiments.

hTS cells [4] = test: RA effect on Nanog, Oct4, Sox2, Cdx2 expression in hTS cells (flow cytometry)
[5] = system: protein kinase C (PKC) pathway; conditions: cited from earlier work
hTS cells [6] = test: RA-induced differentiation of hTS cells; assay type: cell-based, human
Description: In another embodiment, a similar ratio in distribution of mixed RA-induced neural progenitors results over 1 to 5-day RA-induction periods. In another embodiment, the cell differentiation becomes undefined trophoblast giant cells over a 7-day RA treatment.
Cells were cultured in conditioned α-MEM containing 20% FBS, 1% penicillin-streptomycin, and 10 μg/ml bFGF (CytoLab Ltd, Rehovot, Israel) at 37° C. in 5% CO2. The medium was refreshed every 3 days in general. After 5 passages of culture, cell differentiations into a variety of specific cell phenotypes were performed by various strategies as shown in the Table in FIG. 12. For osteogenic differentiation, cytochemical mineral matrix was analyzed using an Alizarin red S assay (Sigma-Aldrich, St. Louis, MO) to detect the calcium mineral content. To identify the calcium deposits, cells were fixed and incubated with 2% silver nitrate solution (w/v) for 10 min in dark followed by thorough wash with de-ionized water and exposed under bright light for 15 min. Cells were treated with […] to detect alkaline phosphatase activity using a commercial kit (Sigma-Aldrich, St. Louis, MO). Chondrogenic differentiation was confirmed using Alcian blue staining (Sigma-Aldrich, St. Louis, MO) at an acidic pH level. […]

AhR = test: TIRF microscopy of GFP-tagged AhR at the plasma membrane in Huh-7 cells; assay type: cell-based, human; conditions: BBP 1 μM
Source text: Immunofluorescence studies are considered important for the dynamic study of signal transduction through their ability to capture snapshots of molecular changes in the cell. Human hepatic Huh-7 cancer cells were pre-transfected with pGFP-C1-AhR by using LT1 transfection reagent (Minis Bio LLC, WI) and total internal reflection fluorescence microscopy to selectively observe the molecular events in the cytoplasmic region immediately beneath the plasma membrane. When BBP was introduced, a rapid but transient recruitment and translocation of the GFP-tagged AhR occurred at the subcellular membrane regions, showing a fast elevation and peaking in 115 seconds followed by a gradual decrease in AhR that occurred over a few minutes (FIG. 14a). This fast, dynamic movement of the memAhR at the subcellular membrane is reminiscent of the notion of soft-wired signal transduction.
Huh-7 cells were pre-transfected with pGFP-C1-AhR (a gift of H. Li) by using LT1 transfection reagent (Minis Bio LLC, Madison, WI) for 24 h. For TIRF microscopy, cells were cultured in serum-free medium on cover-slip overnight followed by stimulation by BBP (1 μM, Sigma). The dynamic activities of GFP-tagged AhR at the cell membrane were observed and analyzed by using Zeiss TIRF microscope with Axio Vision Rel. 4.8 software.

CaMKII = CaMKII inhibitor effect on eIF4B expression (Western blots); assay type: cell-based, human; conditions: KN93 1 μM, 2 hr
Description: FIGS. 21a-21n illustrate activation of Gαq/11 signaling pathway: (21a) illustrates expressions of Gαq/11 pathway-related components after RA treatment (10 μM) over time by Western blots; (21b) illustrates real-time live cell imaging microscopy (Cell-R system, Olympus, Tokyo) in hTS cells which were cultured in the calcium-free medium and pre-loaded with Fluo4 (1 μM) in BSS buffer 20 min before RA treatment. (a) The RA-induced depletion of intracellular calcium was rescued by adding CaCl2 (2 mM) with a SOCE pattern. […] (c) After depletion of ER calcium, KCl (60 mM) enabled to activate L-type calcium channels.
The transient CaMKII bound and activated eukaryotic initiation factor 4B (eIF4B) (FIG. 21c) to initiate mRNA translation machinery via a cap-independent mechanism.

## NCCOB(c1ccccc1)c1ccccc1 [2-APB, 2-aminoethoxydiphenyl borate]
Huh-7 cells
  BBP-induced COX-2 production: blocked
[1]; 2-APB at various concentrations
  BBP-elicited intracellular calcium levels: dose-dependently inhibit
[2]; 2-APB, dose-dependent
  RA-induced ER calcium release: inhibited
IP3R
  Calcineurin, NFAT1, and MEF2A expression: inhibited

## CC1=C(/C=C/C(C)=C/C=C/C(C)=C/C(=O)O)C(C)(C)CCC1 [RA, all-trans retinoic acid]
hTS cells [3]; RA 10 μM, RT-PCR
  time of peak c-Src mRNA expression: 15 min
  time of transient elevation of RXRα mRNA and RARβ mRNA: 15 min
hTS cells [3]; RA 10 μM, Western blot
  time of production of c-Src protein: 1 h
hTS cells [3]; RA 4 hr and 24 hr incubation, Western blots
  Wnt2B and FRAT1 expression: significantly upregulated
hTS cells [3]; RA 4 hr vs overnight, flow cytometry
  GSK3β activity state: initially activated in 4 hr but transited into inhibitory later
hTS cells [3]; RA, RT-PCR
  Fzd6 mRNA expression: overexpression
hTS cells [3]; RA, Western blot
  calcineurin production: induced production
  time of CaMKII activation: 1 to 2 h
  time of HDAC6 elevation: 2 h
  time of Nanog production: 4 h
hTS cells [3]; RA, Western blots
  time of RARβ production: 4 h
  time of c-Src expression: 5 min
  time of production of Gαq/11 and Gβ: 30 min
  time of transient Akt3 activation: 1 h
hTS cells [3]; RA, between 30 min and 24 hr, Western blots
  β-catenin activation: significantly activated
hTS cells [3]; RA, disappeared after 24 hr
  time of mTOR phosphorylation at serine 2448: 4 h
hTS cells [3]; RA, fading away at 24 hr
  time of peak eIF4B production: 4 h
hTS cells [4]; RA one day
  effect on expression of Nanog, Oct4, Sox2, Cdx2: promoted expressions of Nanog, Oct4 and Sox2 but not Cdx2
hTS cells [4]; RA-induced cells (10 μM, 1 day)
  Nanog expression: 26.9%
[5]
  time of translocation of PKC-γ: ≤ 5 min
[5]; transient, at 2 min
  increase in intracellular diacylglycerol (DG): 1.3 fold
[2]; RA, calcium-free medium, Fluo4
  intracellular Ca2+ response: transiently intracellular Ca^2+ release
hTS cells [6]; RA 10 μM, 1 to 7 days
  differentiation of hTS cells into neural cell phenotypes: induces hTS cells differentiation into a variety of phenotypical neural cells
hTS cells [6]; treatment with all-trans retinoic acid
  giant cell formation: resulted in a formation of giant cells

## CCCCOC(=O)c1ccccc1C(=O)OCc1ccccc1 [BBP, Benzyl butyl phthalate]
Huh-7 cells; BBP 1 μM
  time of COX-2 production: 15 min
Huh-7 cells; BBP 1 μM, RT-PCR
  time of induction of AhR mRNA expression: 5 min
  time of peak AhR mRNA expression: 15 min
Huh-7 cells; BBP 1 μM, Western blot
  time of Gαq/11 and Gβ production: 30 min
  time of elevation in AhR production: 15 min
Huh-7 cells; BBP 1 μM, overnight
  ARNT expression: significantly inhibited
Huh-7 cells; BBP 1 μM, dephosphorylated at 30 min
  time of ERK1/2 phosphorylation: 15 min
[1]; BBP 1 μM, calcium free medium
  intracellular calcium response: release of intracellular calcium
AhR
  time to peak of GFP-tagged AhR recruitment at subcellular membrane: 115 s

## COc1ccc(S(=O)(=O)N(CCO)c2ccccc2CN(C)C/C=C/c2ccc(Cl)cc2)cc1 [KN93]
CaMKII
  eIF4B expression: inhibited

— US11891623B2, “Generation of neural stem cells from human trophoblast stem cells” (Accelerated BioSciences Corp., priority 2010, dated 2024)
